System: 874868-142-R-J2-PDC complex spheroids, growth % test/control
Test: Anticancer human tumor 874868-142-R-J2-PDC patient-derived head and neck squamous carcinoma cell line growth inhibition [CLK]
Conditions: for IC50: curve of first compound; for viability, T/C: stronger effect = lower value
Summary of the method: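 Multi-cell-type spheroids combined patient-derived tumor cells with HUVEC endothelial cells and human mesenchymal stem cells. Paired agents were dosed in half-log steps down from about clinical Cmax, or from 10 microM where Cmax was unknown.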

[1] = second compound 0.0316 µM, first compound 0.0316 µM
[2] = second compound 0.0316 µM, first compound 0.1 µM
[3] = second compound 0.0316 µM, first compound 0.316 µM
[4] = second compound 0.0316 µM, first compound 1 µM
[5] = second compound 0.1 µM, first compound 0.0316 µM
[6] = second compound 0.1 µM, first compound 0.1 µM
[7] = second compound 0.1 µM, first compound 0.316 µM
[8] = second compound 0.1 µM, first compound 1 µM
[9] = second compound 0.316 µM, first compound 0.0316 µM
[10] = second compound 0.316 µM, first compound 0.1 µM
[11] = second compound 0.316 µM, first compound 0.316 µM
[12] = second compound 0.316 µM, first compound 1 µM
[13] = second compound 1 µM, first compound 0.0316 µM
[14] = second compound 1 µM, first compound 0.1 µM
[15] = second compound 1 µM, first compound 0.316 µM
[16] = second compound 1 µM, first compound 1 µM
[17] = second compound 3.16 µM, first compound 0.0316 µM
[18] = second compound 3.16 µM, first compound 0.1 µM
[19] = second compound 3.16 µM, first compound 0.316 µM
[20] = second compound 3.16 µM, first compound 1 µM
[21] = second compound 10 µM, first compound 0.0316 µM
[22] = second compound 10 µM, first compound 0.1 µM
[23] = second compound 10 µM, first compound 0.316 µM
[24] = second compound 10 µM, first compound 1 µM
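Also: spheroids exposed to the compounds for 7 days.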
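For viability, T/C in this document: 100% = DMSO vehicle control viability.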

Work on C=CC(=O)Nc1cc(Nc2nccc(-c3cn(C)c4ccccc34)n2)c(OC)cc1N(C)CCN(C)C + CNC(=O)c1ccc(Nc2nc(OC3CCCC3)c3c(-c4ccc5nc(C)oc5c4)c[nH]c3n2)c(OC)c1 yielded an IC50 (second compound 0.0316 µM) of 35.9 nM, an IC50 (second compound 0.1 µM) of 22.2 nM and an IC50 (second compound 0.316 µM) of 4.75 nM. It also gave an IC50 (second compound 1 µM) of under 0.949 nM, an IC50 (second compound 3.16 µM) of under 0.949 nM and an IC50 (second compound 10 µM) of under 0.949 nM. It also gave a viability, T/C (second compound 0.0316 µM, first compound 0.000949 µM) of 101%, a viability, T/C (second compound 0.0316 µM, first compound 0.003 µM) of 115% and a viability, T/C (second compound 0.0316 µM, first compound 0.00949 µM) of 77.4%. For the same molecule, the viability, T/C (second compound 0.0316 µM, first compound 0.03 µM) was 51.3%, the viability, T/C (second compound 0.0316 µM, first compound 0.0949 µM) was 45.7% and the viability, T/C (second compound 0.0316 µM, first compound 0.3 µM) was 23.9%. It also gave a viability, T/C (second compound 0.1 µM, first compound 0.000949 µM) of 103%, a viability, T/C (second compound 0.1 µM, first compound 0.003 µM) of 75% and a viability, T/C (second compound 0.1 µM, first compound 0.00949 µM) of 57.5%. The viability, T/C (second compound 0.1 µM, first compound 0.03 µM) was 52.4%, the viability, T/C (second compound 0.1 µM, first compound 0.0949 µM) was 30.6% and the viability, T/C (second compound 0.1 µM, first compound 0.3 µM) was 19.8%. The viability, T/C (second compound 0.316 µM, first compound 0.000949 µM) was 64.4%, the viability, T/C (second compound 0.316 µM, first compound 0.003 µM) was 48.9% and the viability, T/C (second compound 0.316 µM, first compound 0.00949 µM) was 48%. For the same molecule, the viability, T/C (second compound 0.316 µM, first compound 0.03 µM) was 38.5%, the viability, T/C (second compound 0.316 µM, first compound 0.0949 µM) was 24.8% and the viability, T/C (second compound 0.316 µM, first compound 0.3 µM) was 24.3%. The viability, T/C (second compound 1 µM, first compound 0.000949 µM) was 48.9%, the viability, T/C (second compound 1 µM, first compound 0.003 µM) was 40.5% and the viability, T/C (second compound 1 µM, first compound 0.00949 µM) was 38.6%. The viability, T/C (second compound 1 µM, first compound 0.03 µM) was 32.5%, the viability, T/C (second compound 1 µM, first compound 0.0949 µM) was 26.4% and the viability, T/C (second compound 1 µM, first compound 0.3 µM) was 14.4%. For the same molecule, the viability, T/C (second compound 3.16 µM, first compound 0.000949 µM) was 43.4%, the viability, T/C (second compound 3.16 µM, first compound 0.003 µM) was 39.6% and the viability, T/C (second compound 3.16 µM, first compound 0.00949 µM) was 38%. The viability, T/C (second compound 3.16 µM, first compound 0.03 µM) was 31.5%, the viability, T/C (second compound 3.16 µM, first compound 0.0949 µM) was 25.5% and the viability, T/C (second compound 3.16 µM, first compound 0.3 µM) was 20%. It also gave a viability, T/C (second compound 10 µM, first compound 0.000949 µM) of 41.8%, a viability, T/C (second compound 10 µM, first compound 0.003 µM) of 37.7% and a viability, T/C (second compound 10 µM, first compound 0.00949 µM) of 32.7%. For the same molecule, the viability, T/C (second compound 10 µM, first compound 0.03 µM) was 32.3%, the viability, T/C (second compound 10 µM, first compound 0.0949 µM) was 28% and the viability, T/C (second compound 10 µM, first compound 0.3 µM) was 18.3%.
CCN1CCN(Cc2ccc(Nc3ncc(F)c(-c4cc(F)c5nc(C)n(C(C)C)c5c4)n3)nc2)CC1 + CNC(=O)c1ccc(Nc2nc(OC3CCCC3)c3c(-c4ccc5nc(C)oc5c4)c[nH]c3n2)c(OC)c1 showed an IC50 (second compound 0.0316 µM) of over 1000 nM, an IC50 (second compound 0.1 µM) of over 1000 nM and an IC50 (second compound 0.316 µM) of over 1000 nM. It also gave an IC50 (second compound 1 µM) of under 3.16 nM, an IC50 (second compound 3.16 µM) of under 3.16 nM and an IC50 (second compound 10 µM) of under 3.16 nM. It also gave a viability, T/C (second compound 0.0316 µM, first compound 0.00316 µM) of 96.9%, a viability, T/C (second compound 0.0316 µM, first compound 0.01 µM) of 103% and a viability, T/C [1] of 95.2%. It also gave a viability, T/C [2] of 100%, a viability, T/C [3] of 121% and a viability, T/C [4] of 113%. For the same molecule, the viability, T/C (second compound 0.1 µM, first compound 0.00316 µM) was 106%, the viability, T/C (second compound 0.1 µM, first compound 0.01 µM) was 91.8% and the viability, T/C [5] was 94.5%. It also gave a viability, T/C [6] of 81.6%, a viability, T/C [7] of 109% and a viability, T/C [8] of 113%. It also gave a viability, T/C (second compound 0.316 µM, first compound 0.00316 µM) of 59.4%, a viability, T/C (second compound 0.316 µM, first compound 0.01 µM) of 62.7% and a viability, T/C [9] of 56.2%. It also gave a viability, T/C [10] of 64.6%, a viability, T/C [11] of 84.8% and a viability, T/C [12] of 99.9%. The viability, T/C (second compound 1 µM, first compound 0.00316 µM) was 46.2%, the viability, T/C (second compound 1 µM, first compound 0.01 µM) was 44.8% and the viability, T/C [13] was 44.4%. It also gave a viability, T/C [14] of 49.3%, a viability, T/C [15] of 67.9% and a viability, T/C [16] of 68.7%. For the same molecule, the viability, T/C (second compound 3.16 µM, first compound 0.00316 µM) was 41.9%, the viability, T/C (second compound 3.16 µM, first compound 0.01 µM) was 50.8% and the viability, T/C [17] was 41.5%. It also gave a viability, T/C [18] of 38.5%, a viability, T/C [19] of 50.8% and a viability, T/C [20] of 72.5%. It also gave a viability, T/C (second compound 10 µM, first compound 0.00316 µM) of 46.2%, a viability, T/C (second compound 10 µM, first compound 0.01 µM) of 40.5% and a viability, T/C [21] of 56%. The viability, T/C [22] was 45.6%, the viability, T/C [23] was 66.8% and the viability, T/C [24] was 71.2%.
Work on Nc1ccccc1NC(=O)c1ccc(CNC(=O)OCc2cccnc2)cc1 + CNC(=O)c1ccc(Nc2nc(OC3CCCC3)c3c(-c4ccc5nc(C)oc5c4)c[nH]c3n2)c(OC)c1 yielded an IC50 (second compound 0.0316 µM) of 7270 nM, an IC50 (second compound 0.1 µM) of 7260 nM and an IC50 (second compound 0.316 µM) of 4800 nM. For the same molecule, the IC50 (second compound 1 µM) was 252 nM, the IC50 (second compound 3.16 µM) was 3950 nM and the IC50 (second compound 10 µM) was 3440 nM. It also gave a viability, T/C [1] of 107%, a viability, T/C [2] of 87.5% and a viability, T/C [3] of 110%. For the same molecule, the viability, T/C [4] was 114%, the viability, T/C (second compound 0.0316 µM, first compound 3.16 µM) was 109% and the viability, T/C (second compound 0.0316 µM, first compound 10 µM) was 28.7%. For the same molecule, the viability, T/C [5] was 82.6%, the viability, T/C [6] was 73.7% and the viability, T/C [7] was 94.4%. It also gave a viability, T/C [8] of 109%, a viability, T/C (second compound 0.1 µM, first compound 3.16 µM) of 101% and a viability, T/C (second compound 0.1 µM, first compound 10 µM) of 33.6%. The viability, T/C [9] was 61.5%, the viability, T/C [10] was 61.4% and the viability, T/C [11] was 67.8%. It also gave a viability, T/C [12] of 79.9%, a viability, T/C (second compound 0.316 µM, first compound 3.16 µM) of 88.9% and a viability, T/C (second compound 0.316 µM, first compound 10 µM) of 11.3%. For the same molecule, the viability, T/C [13] was 42.4%, the viability, T/C [14] was 45% and the viability, T/C [15] was 52.1%. The viability, T/C [16] was 66.9%, the viability, T/C (second compound 1 µM, first compound 3.16 µM) was 76.6% and the viability, T/C (second compound 1 µM, first compound 10 µM) was 11.9%. It also gave a viability, T/C [17] of 49.2%, a viability, T/C [18] of 47% and a viability, T/C [19] of 56.9%. The viability, T/C [20] was 71.8%, the viability, T/C (second compound 3.16 µM, first compound 3.16 µM) was 72.1% and the viability, T/C (second compound 3.16 µM, first compound 10 µM) was 10.8%. For the same molecule, the viability, T/C [21] was 41.8%, the viability, T/C [22] was 44% and the viability, T/C [23] was 49%. The viability, T/C [24] was 67.3%, the viability, T/C (second compound 10 µM, first compound 3.16 µM) was 69.2% and the viability, T/C (second compound 10 µM, first compound 10 µM) was 3.57%.

From PubChem BioAssay AID2060601 (Molecular Pharmacology Branch, DTP, NCI, 2025)
